Data from patent publication US12692232B2, “Indole carboxamide compound, preparation therefor and use thereof” (NANJING RUISHUNING MEDICAL TECHNOLOGY CO., LTD., priority 2021, dated 2026).

Target: T1, TRPC4 protein (Homo sapiens, UniProt Q9UBN4)
T1 sequence (Q9UBN4 1-977): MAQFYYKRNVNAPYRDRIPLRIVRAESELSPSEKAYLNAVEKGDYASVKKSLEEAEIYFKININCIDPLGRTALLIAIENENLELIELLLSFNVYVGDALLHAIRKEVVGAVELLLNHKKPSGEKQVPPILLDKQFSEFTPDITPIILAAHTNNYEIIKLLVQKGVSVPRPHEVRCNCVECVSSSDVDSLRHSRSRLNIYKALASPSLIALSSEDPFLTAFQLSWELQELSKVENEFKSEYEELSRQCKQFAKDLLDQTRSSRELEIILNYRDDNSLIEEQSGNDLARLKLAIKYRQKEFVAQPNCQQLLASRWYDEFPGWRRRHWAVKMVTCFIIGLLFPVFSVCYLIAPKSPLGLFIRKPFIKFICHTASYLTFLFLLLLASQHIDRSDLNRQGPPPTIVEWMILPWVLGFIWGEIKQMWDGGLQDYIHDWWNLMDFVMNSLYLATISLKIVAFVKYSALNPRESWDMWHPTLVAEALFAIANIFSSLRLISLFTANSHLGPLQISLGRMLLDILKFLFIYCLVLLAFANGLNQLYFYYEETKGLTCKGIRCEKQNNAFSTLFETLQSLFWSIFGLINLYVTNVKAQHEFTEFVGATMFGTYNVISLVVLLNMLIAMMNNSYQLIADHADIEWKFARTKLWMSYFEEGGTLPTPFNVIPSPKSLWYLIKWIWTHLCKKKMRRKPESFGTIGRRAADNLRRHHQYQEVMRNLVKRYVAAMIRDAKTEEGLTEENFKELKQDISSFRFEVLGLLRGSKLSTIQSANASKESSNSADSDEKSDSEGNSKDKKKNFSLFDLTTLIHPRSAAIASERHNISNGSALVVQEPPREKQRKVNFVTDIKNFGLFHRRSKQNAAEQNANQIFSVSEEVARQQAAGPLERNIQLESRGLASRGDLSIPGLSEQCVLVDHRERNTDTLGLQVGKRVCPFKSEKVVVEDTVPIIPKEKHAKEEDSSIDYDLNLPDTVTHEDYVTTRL
Test: MST binding to TRPC4 protein
Protocol: Preparation and labelling of protein solution: TRPC6 protein dry powder (Alomone Labs, Israel) was prepared into a protein mother solution at a concentration of 10 μM using PBS-Buffer, and 35 μL of the protein stock solution was taken to the Buffer exchange A column, and centrifuged to obtain the Tris-removed protein. 34 μL Labelling Buffer was added to the Tris-removed protein according to the instructions of the Protein Fluorescent Labelling Kit (model L001). After mixing well, 3 μL of NT-647-NHS fluorescent dye was added and thus obtained mixture was incubated for 20 minutes. The protein-dye mixture was transferred to the purification B column, 300 μL of PBS-Buffer was added, and the target protein, i.e. fluorescent labelled protein TRPC6, was collected by centrifugation (with a final concentration of about 2 μM). 180 μL of target protein was mixed with 1620 μL of PBS-Buffer, and then 9 μl of Tween-20 were added thereto. […]
The binding ability of the compounds of the present invention (as exemplified by the compounds 1-1 and 2-1 obtained in Examples 1 and 3) for other TRPC proteins (e.g., TRPC1, TRPC3, TRPC4, TRPC5, and TRPC7) was determined using the microscale thermophoresis (MST) method. […]
The affinity of the compounds of the present invention with TRPC1, TRPC3, TRPC4, TRPC5 and TRPC7 proteins, respectively, was determined by the same method as in Example 5.

| SMILES | Kd for binding to TRPC4 protein |
| --- | --- |
| CC(=O)OCCCNC(=O)c1c(C=O)c2ccccc2n1C [compound 1-1, propyl 3-[(3-formyl-1-methyl-1H-indole-2-carbonyl)amino]acetate] | cannot be measured |
| Cn1c(C(=O)NCCCOC(=O)c2ccccc2)c(C=O)c2ccccc21 [compound 2-1] | cannot be measured |
